Here are results for one substance from publication PMC3664642, “A Peptide against Soluble Guanylyl Cyclase α1: A New Approach to Treating Prostate Cancer” (PLoS ONE, 2013).

The subject of one test is DNA damage in C81 cells. The test can be described thus: Comet assay (DNA damage). The note with it: C81, 1 hr, Fig. 4C. Type of test: cell-based. The protocol: C81 cells were treated with Peptide A-8R for 1 hour, following a 2-hour pretreatment with 5 mM NAC or Vehicle, and trypsinized, and mixed with Comet LM-Agarose (CometAssay, […]) and transferred to slides. Electrophoresis and Sybr-Green staining was carried out according to manufacturer’s protocol.
Figure 4 Peptide A-8R kills prostate cancer cells by mediating ROS generation. (A) C81 cells were treated with Vehicle or different µMolar concentrations of Peptide A-8R and without or with 0–5 mM NAC and monitored for ROS generation after 0–30 min as measured by fluorescence intensity (FI). Bar graphs represent averages of three independent experiments plus standard deviations. Note that asterisks on bar graphs found with NAC are compared to equivalent data without NAC. (B) C81 cells were treated with Vehicle or different concentrations of Peptide A-8R, as shown, and 0–5 mM NAC, as shown, and monitored for cell number after 0–6 days of incubation as measured by MTT assay. Data points represent averages of three independent experiments plus standard deviations. Asterisks indicate statistical significance (P<0.04). (C) C81 cells were treated with Vehicle or different concentrations of Peptide A-8R, as shown, and with or without 5 mM NAC, as shown, and monitored DNA damage after 1 hr incubation as measured by Comet assay.

In another test the test system is p15, p21, CDK6. Kind of test: Expression of cell-cycle regulatory proteins (Western blot), C81 cells. The conditions noted are these: 25 µM, Fig. S7. It is filed as cell-based. The protocol: Western blotting was performed as described using primary antibodies against sGCα1 (Cayman Chemical), pan-Akt (Cell Signaling Technology), phospho-AKT (S473, T308) (Cell Signaling Technology), phospho-PDK1 (Cell Signaling Technology), phospho-GSK-3β (Cell Signaling Technology), PARP (Cell Signaling Technology), and β-Actin (Abcam).
Supplementary file pone.0064189.s007.tif: Figure S7 Peptide A-8R induces expression of p15 and p21 in prostate cancer cells. C81 cells treated with 25 µM Peptide A-8R or Peptide C-8R for different times, as shown, monitored for expression of p15, p21, and CDK6 by Western blotting (antibodies from Cell Signaling Technology). Note that β-actin was used to control for protein loading. (TIF) Click here for additional data file.

A further test has as its system Cos cells. The test can be described thus: Proliferation/cytotoxicity, sGCα1-deficient Cos cells (MTT). It is filed as cell-based, African green monkey. The conditions noted are these: different concentrations, Fig. 3E. As to the method:
LNCaP, C81, PC-3 and Cos cells were grown as previously described. CWR-22Rv1 cells were cultured in RMPI-1640 medium with 10% FBS and 50 µg/ml Gentamicin (Gibco). Control siRNA, sGCα1 siRNA and AKT siRNA (Dharmacon) at 50 nM final concentration was transfected into cells using Lipofectamine siMAX (Invitrogen).
For proliferation, cells were grown in medium containing 2% FBS extracted with dextran-coated charcoal (DCC). 48 hours later, ethanol or 1 nM R1881 was added to the cells followed by peptide treatment. The MTT assay (Sigma) was used as before to determine cell number. For apoptosis, 5000 cells were seeded in 96-well plates and treated with Vehicle (DMSO), Peptide A-8R (25 µM), Etoposide (50 µM) (Sigma) at different time points. The Caspase (3/7) activity was measured using Apo-ONE Homogeneous Caspase-3/7 assay kit (Promega). PARP cleavage was also used to measure apoptosis, and is described below.
Vehicle or different concentrations of Peptide A-8R or C-8R, as shown, was added to (A) hormone-dependent LNCaP cells grown in 2% serum without or with 1 nM R1881, (C) castration-resistant C81 or CWR-22Rv1 cells, or (E) sGCα1-deficient PC-3 or Cos cells. Cell number was measured after various days of incubation. Data points represent averages of three independent experiments plus standard deviations. […]

Where no end group is shown, it is not given here.

For Ac-TFCKAFPFHIIRRRRRRRR [Peptide A-8R], the “DNA damage (Comet)” value in the test with DNA damage in C81 cells (10 µM) was “induced weakly”; with DNA damage in C81 cells (25 µM) it was “much more strongly”; with DNA damage in C81 cells (50 µM) it was “does not elicit a Comet signal”. The “expression of CDK6” value in the test on p15, p21, CDK6 was “unchanged”. Also, in the test on p15, p21, CDK6, the “expression of p15 and p21” value is reported as “expression increased”. Moreover, the “effect on Cos cells” value in the test on Cos cells was “little to no effect”.
